# Test system: Maize
# Experiment: Plant growth promotion, maize whole plant biomass after soil drench
# Type: in vivo
# Experimental: For instance, the formula and analysis can be applied to an evaluation of plant growth promotion. Such an assay is evaluated several days after the applications to plants. 100% means plant weight which corresponds to that of the untreated control plant. Efficacy means in this case the additional % of plant weight in comparison to that of the untreated control.
# Experiments were conducted to analyze efficacy of a combination of flupyradifurone and a fermentation product of recombinant Bacillus thuringiensis cells expressing phospholipase C (“BEPC”). Maize seeds were grown in sterile mixture of synthetic media and sand in small three-inch square pots on light racks in a plant growth room at 25-28° C. and 50% humidity for about 14 days. Two seeds were planted in each pot. At planting, the growing media in each pot was drenched with the treatments described below. After 14 days, plants were measured for whole plant biomass. In the tables below, UTC refers to untreated control. “Calculated” refers to the expected effect calculated using the above-described Colby equation and “Efficacy” refers to the actual effect observed.
# The SIVANTO® product, which contains flupyradifurone as its active ingredient (17.09% flupyradifurone), was diluted in 50 mL water and the diluted solution was used to drench the growing media. The application rate shown below refers to the amount of active ingredient (i.e., flupyradifurone) applied to the growing media.
# A recombinant Bacillus cereus family member (Bacillus thuringiensis BT013A) expressing phospholipase C on its exosporium (BEPC) was generated as follows. […]
# To obtain whole broth cultures of BEPC, 15 ml conicals containing brain heart infusion media (BHI) were inoculated with BEPC and grown for 7-8 hours at around 30° C. at a shaker setting of 300 rpm. […] After approximately 2 days of incubation, when sporulation was at least 95% completed, the culture broth was harvested and colony forming units calculated. […]
smiles,measurement,setting,value
"O=C1C=C(N(Cc2ccc(Cl)nc2)CC(F)F)CO1 [Flupyradifurone, flupyradifurone]",Efficacy %,"actual effect observed: additional % of plant weight versus UTC, 14 days",3%
same,Whole Plant Biomass,"growing media drenched at planting, measured after 14 days, flupyradifurone 1.36 mg/pot, BEPC 7 × 10^8 CFU/pot",3.50 g
same,Found %,"plant weight relative to UTC = 100, drench at planting, 14 days",103%
